Experimental data as given in patent publication US4780476A, “Azoniaspironortropanol esters as asthma therapeutics and broncholytics” (Madaus GmbH & Co., priority 1985, dated 1988).
≈ marks a conversion by molar mass, not a printed value. Where two headings read alike, the source gives them in different places.

What was measured:
[1] = system: awake guinea pig (cholinergically-induced bronchial cramps); assay: inhalative provocation with acetyl-β-methylcholine chloride aerosol on awake guinea pigs (broncholytic/protective action); format: in vivo; details: for EC50: Cavia porcellus, read-out: EC50, average effective concentration w of acetyl-β-methylcholine chloride (provocation substance) after pre-treatment; for probit analysis reaction % observed: animals reacting with dyspnoea; for probit analysis reaction % calculated: probit regression
Method: animal strain: Pirbright white test substance: trospium chloride (MP 194) (M.W. 428) dosage: 3×10^-7 mole ml^-1 kg^-1 mode of administration: intraperitoneally test substance: dehydrotrospium chloride (WG 71) (M.W. 426) […]
reference substance: atropine hydrochloride (Serva; M.W. 325.8) […]
reference substance: isoproterenol (Fluka; M.W. 247.72) dosage: […]
further substances: acetyl-β-methylcholine chloride (Sigma; M.W. 195.7) mode of administration: 0.5 ml. min^-1 by inhalation.
The guinea pigs intended for an experiment are, after an acclimatization time of at least 8 days, subjected twice to an aerosol of 0.1% acetyl-β-methylcholine chloride solution since, as is known from experience, during the first two inhalative provocations, the animals react with more distinct respiratory disturbances than in the case of the subsequent provocations (adaptation). If, in the case of the two inhalation phases, a nonsensitivity (absence of respiratory disturbances) is observed towards the exposure, these animals are excluded from the actual experiment.
For the purpose of aerosol provocation, the guinea pigs are placed individually in an inhalation chamber (see Section 3.6 hereinafter) in which 0.5 ml. of solution per minute are atomized as droplet aerosol by means of a special nozzle (Rhema, Hofheim, Germany). […] With the help of a stopwatch, there is recorded the time from the commencement of inhalation to the appearance of the asphyctic state; the animals are immediately removed from the inhalation chamber and, as a rule, recover in a very short period of time (recovery of consciousness and normalization of breathing). If, within 180 seconds, no dysponea occurs, the inhalation is discontinued.
One aerosol concentration is tested per test day; the time between the individual aerosol provocations is at least 1 week.
The inhalation chamber is a Plexiglass container specially made for this purpose, the lid of which can be closed in an air-tight manner by means of rubber sealing and grip closure means. The internal measurements of the chamber are 285×190×180 mm., which corresponds to a volume of about 9.75 liters. The special nozzle (Rhema, Hofheim, Germany, order No. 504104) is fixed to a recess on the lid and ensures a uniform supply of the available chamber space with the aerosol. The provocation solution is supplied to the nozzle via an infusion pump (Braun, Melsungen, Germany) (0.5 ml./minute) and there atomized with a superpressure of 180 kPa from an attached pressure gas bottle (artificial air, KW-free). For reasons of safety, the aerosol provocation is carried out under a ventilator.
The EC50, as well as the related confidence interval (p>95%), are determined from the probit regression lines of the percentage values (v. supra) provided with weight coefficients after line adaptation by the "maximum likelihood" method (10 iterations). Furthermore, there is examined the adaptation of the lines to the observed data by means of the chiquadrat test. For the evaluation, a calculation programme is commercially available (Olivetti).

[2] = target: T1, isolated tracheal spirals of the guinea pig (Cavia porcellus, UniProt H0W1Z3); assay: anticholinergic effectiveness on isolated tracheal spirals (antagonism against acetyl-β-methylcholine chloride); details: for antagonism against acetyl-β-methylcholine chloride / anticholinergic effectiveness (in words): isolated guinea pig tracheal spirals
T1 construct: the whole of the trachea is roughly freed beginning from the larynx up to the tracheal bifurcation, removed and transferred; from tissue; host or cells: isolated trachea (spiral strips) of male Pirbright white guinea pigs
T1 sequence (H0W1Z3 1-590): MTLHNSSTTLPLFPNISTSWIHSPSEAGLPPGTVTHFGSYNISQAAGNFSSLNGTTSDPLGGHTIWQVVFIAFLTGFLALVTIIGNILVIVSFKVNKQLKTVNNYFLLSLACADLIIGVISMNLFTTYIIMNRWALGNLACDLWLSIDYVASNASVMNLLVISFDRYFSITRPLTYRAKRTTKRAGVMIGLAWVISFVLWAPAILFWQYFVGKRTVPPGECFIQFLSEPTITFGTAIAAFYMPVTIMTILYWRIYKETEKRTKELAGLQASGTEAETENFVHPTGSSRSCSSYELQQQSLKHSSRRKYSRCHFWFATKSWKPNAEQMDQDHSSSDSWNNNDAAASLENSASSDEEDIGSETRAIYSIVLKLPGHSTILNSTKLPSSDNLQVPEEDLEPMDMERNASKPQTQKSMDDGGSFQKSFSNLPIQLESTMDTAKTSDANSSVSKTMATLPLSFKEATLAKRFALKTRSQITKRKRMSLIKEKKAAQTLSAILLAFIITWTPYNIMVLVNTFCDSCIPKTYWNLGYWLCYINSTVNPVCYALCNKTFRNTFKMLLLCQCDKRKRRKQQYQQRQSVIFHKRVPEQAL
Source text: (§1) A model for this is the measurement of the anticholinergic effectiveness on isolated tracheal spirals of the guinea pig.
(§2) The test substance used was 3α-benziloyloxynortropane-8-spiro-1'-pyrrolidinium chloride (trospium chloride; MP 194), ipratropium bromide being used as comparison substance.
(§3) There is to be determined the anticholinergic effectiveness of MP 194 in comparison with the reference substance ipratropium bromide on the isolated tracheal spirals of the guinea pig.
(§4) 3.1.1. animal species: guinea pig
(§5) 3.1.2. animal strain: Pirbright white
(§6) 3.3.1. test substance (test antagonist) trospium chloride (MP 194) (M.W. 428)
(§7) 3.3.2. reference substance (reference antagonist) ipratropium bromide (Atrovent) (M.W. 412.4)
(§8) 3.3.3.1. acetyl-β-methylcholine chloride (Sigma) (M.W. 195.7)
(§9) The guinea pig is stunned by a blow on the neck. Subsequently, the whole of the trachea is roughly freed beginning from the larynx up to the tracheal bifurcation, removed and transferred to tempered (37° C.) and carbogenized tyrode solution. After surrounding connective tissue has been removed as far as possible, the preparation is cut up spirally by means of fine scissors at an angle of about 45° and separated into two equal sized sections. After weighing, both preparations are provided proximally and distally with a silk thread. One thread serves for fixing the preparation by means of a loop to the bottom of the bath and the other is connected via a hook with the transducer above the bath vessel.
(§10) Subsequently, the preparations, corresponding to the calibration, are prestressed with about 80 mN and equilibrated from 50-100 minutes. During the equilibration phase, the nutrient solution in the bath vessels is renewed in 15 minute intervals. As soon as the resting muscle tonus of the preparation has stabilized, there takes place the cumulative addition of the agonist, whereby the addition of the next highest concentration first takes place when no further increase of contraction is recognisable (plateau). When the maximum contraction height of the preparation is achieved, the cumulative agonist addition is ended and the preparation is rinsed. After a further equilibration phase (v. supra), the cumulative addition of the agonist is repeated but this time in the presence of the test or reference antagonist.
(§11) 3.6.1. The perfusion part consists of an L-shaped organ bath in the hollow space of which (longer limb) runs a double glass spiral through which the nutrient solution is passed into the actual bath vessel (28 ml. content; shorter limb). This bath vessel is divided into two chambers which are, however, connected together by two transverse connections. […] The inlet chambers as well as the feeding glass spirals are tempered from the outside to 37° C. by a separate liquid circulation. This tempering takes place with the help of a "Colora" ultra-thermostat type K (Colora Messtechnik GmbH, Dusseldorf, Germany) which serves as thermostat and pump. In order, in case of need, always to have available ready-for-use nutrient solution, above the organ bath is provided a double-walled storage container in which the nutrient solution is also tempered and carbogenised. This is connected via a glass stopcock and a polypropylene tube with double glass spiral in the interior of the organ bath.
(§12) 3.6.2. The measurement and recording part includes a transducer (Statham-Universal-Zelle UC-2; Hugo Sachs Elektronic KG, Hugstetten, Germany). By means of a hanging-in weight, a force of 40 mN is produced on the transducer which passes as electrical signal via a connecting cable to a bridge amplifier. The amplification is smoothly so regulated that the force provided corresponds to a constant value on the scale or an analogous value on the millimeter paper of the recorder (dependent upon the amplification; see below). After fixing the organ, the preparation is prestressed to the doubled mark, corresponding to 80 mN. […]

[3] = system: T2, isolated tracheal spirals of the guinea pig (Cavia porcellus); assay: as above; details: ratio of maximum agonist effect in presence (EAmB) and absence (EAm) of antagonist
T2 construct: the whole of the trachea is roughly freed beginning from the larynx up to the tracheal bifurcation, removed and transferred; from tissue; host or cells: isolated trachea (spiral strips) of male Pirbright white guinea pigs
T2 sequence (H0W1Z3 1-590): as above
Source text: as §1, §2, §3, §4, §5, §6, §7, §8, §9, §10, §11, §12

[4] = acetyl-β-methylcholine chloride w=0.001000, 10 tested (isoproterenol 9), pre-treatment 3×10^-7 mol ml^-1 kg^-1 i.p.
[5] = acetyl-β-methylcholine chloride w=0.001000, pre-treatment 3×10^-7 mol ml^-1 kg^-1 i.p.
[6] = acetyl-β-methylcholine chloride w=0.001780, pre-treatment 3×10^-7 mol ml^-1 kg^-1 i.p.
[7] = acetyl-β-methylcholine chloride w=0.001780, trospium chloride 10 tested, dehydrotrospium chloride 9, atropine 9, isoproterenol 8, pre-treatment 3×10^-7 mol ml^-1 kg^-1 i.p.
[8] = acetyl-β-methylcholine chloride w=0.003160, 10 tested (isoproterenol 9), pre-treatment 3×10^-7 mol ml^-1 kg^-1 i.p.
[9] = acetyl-β-methylcholine chloride w=0.003160, pre-treatment 3×10^-7 mol ml^-1 kg^-1 i.p.
[10] = acetyl-β-methylcholine chloride w=0.005620, 10 tested (isoproterenol 9), pre-treatment 3×10^-7 mol ml^-1 kg^-1 i.p.
[11] = acetyl-β-methylcholine chloride w=0.005620, pre-treatment 3×10^-7 mol ml^-1 kg^-1 i.p.

Structure (SMILES) | number of animals reacting [1, 4] | probit analysis reaction % observed [1, 5] | probit analysis reaction % calculated [1, 5] | probit analysis reaction % observed [1, 6] | probit analysis reaction % calculated [1, 6] | number of animals reacting [1, 7] | number of animals reacting [1, 8] | probit analysis reaction % observed [1, 9] | probit analysis reaction % calculated [1, 9] | number of animals reacting [1, 10] | probit analysis reaction % observed [1, 11] | probit analysis reaction % calculated [1, 11] | also measured
O=C(OC1CC2CCC(C1)[N+]21CC=CC1)C(O)(c1ccccc1)c1ccccc1 (stereo not drawn) [dehydrotrospium chloride, 3α-benziloyloxynortropane-8-spiro-1'-(3'-pyrrolinium)chloride] | 3 | 30.00% | 38.74% | 66.67% | 50.60% | 6 | 6 | 60.00% | 62.35% | 7 | 70.00% | 73.08% | broncholytic effectiveness compared with atropine and isoproterenol (in words) ([1]; 15 min after i.p. administration, equimolar dosages): comparable with or superior to the well known parasympatholytics atropine and the β-sympathomimetic isoproterenol; EC50 [1]: 1730 µg/mL; broncholytic effect (in words) ([1]; intraperitoneal, cholinergically-induced bronchial cramps, awake guinea pig): outstanding broncholytic effect
CC(C)[N+]1(C)C2CCC1CC(OC(=O)C(CO)c1ccccc1)C2 (stereo not drawn) [ipratropium bromide, reference compound] | – | – | – | – | – | – | – | – | – | – | – | – | Kb ([2]; antagonism against acetyl-β-methylcholine chloride, read-out: pA2 ± s (converted)): 0.49 nM; quality of the antagonism (in words) ([2]; comparison of maximum effects in absence and presence of the antagonist): competitive antagonism; antagonism against acetyl-β-methylcholine chloride / anticholinergic effectiveness (in words) [2]: comparable, dosage-dependent antagonism; antagonism against acetyl-β-methylcholine chloride / anticholinergic effectiveness (in words) ([2]; listed as epratropium bromide): dosage dependent antagonism; EAmB/EAm ± s [3]: 1.10 ± 0.24
CC(C)NCC(O)c1ccc(O)c(O)c1 (stereo not drawn) [isoproterenol, reference compound] | 3 | 33.33% | 36.21% | 62.50% | 57.88% | 5 | 7 | 77.78% | 77.28% | 8 | 88.89% | 90.30% | EC50 ([1]; pre-treatment 3×10^-7 mol ml^-1 kg^-1 i.p., 15 min before inhalation, w of acetyl-β-methylcholine chloride in atomised solution, control animals w=0.000539, higher = more protection): 1450 µg/mL (≈ 6.86 mM)
